What was measured:
human GBA2 = biological target: T1, human GBA2 (Homo sapiens, UniProt Q9HCG7); assay: Inhibition of GBA2 in cell lysate (4-methylumbelliferone-β-D glucopyranoside substrate); type: biochemical; conditions: homogenate of HEK293T cells stably overexpressing human GBA2, pH 5.5, 37° C., GCase inhibitor present
T1 construct: cellular homogenate
T1 sequence (Q9HCG7 1-927): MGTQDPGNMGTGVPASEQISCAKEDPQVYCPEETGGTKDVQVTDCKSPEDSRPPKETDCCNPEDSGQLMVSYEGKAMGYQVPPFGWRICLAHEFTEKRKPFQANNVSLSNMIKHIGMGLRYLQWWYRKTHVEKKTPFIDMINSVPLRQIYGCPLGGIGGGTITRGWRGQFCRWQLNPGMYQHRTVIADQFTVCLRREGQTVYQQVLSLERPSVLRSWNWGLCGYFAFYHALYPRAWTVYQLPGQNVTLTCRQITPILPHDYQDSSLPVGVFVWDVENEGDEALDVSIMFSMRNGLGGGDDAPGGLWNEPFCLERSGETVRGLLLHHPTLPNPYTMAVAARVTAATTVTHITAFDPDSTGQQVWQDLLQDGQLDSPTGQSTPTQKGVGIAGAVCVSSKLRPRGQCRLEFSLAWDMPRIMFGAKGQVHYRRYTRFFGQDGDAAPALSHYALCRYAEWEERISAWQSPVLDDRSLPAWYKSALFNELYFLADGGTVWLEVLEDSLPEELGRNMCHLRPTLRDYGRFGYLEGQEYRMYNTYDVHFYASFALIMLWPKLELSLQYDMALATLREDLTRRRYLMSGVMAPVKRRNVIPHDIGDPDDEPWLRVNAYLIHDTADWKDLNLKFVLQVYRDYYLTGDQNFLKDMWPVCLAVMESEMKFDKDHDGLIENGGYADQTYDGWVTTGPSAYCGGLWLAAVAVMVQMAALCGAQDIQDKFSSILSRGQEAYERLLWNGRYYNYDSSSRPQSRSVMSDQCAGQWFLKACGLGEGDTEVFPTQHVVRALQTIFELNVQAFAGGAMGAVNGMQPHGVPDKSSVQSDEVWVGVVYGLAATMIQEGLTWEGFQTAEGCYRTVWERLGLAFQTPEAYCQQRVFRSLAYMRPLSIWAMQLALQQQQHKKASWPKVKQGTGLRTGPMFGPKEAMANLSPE
Method: Stable GBA2-expressing HEK293T cells were generated as follows. The PCR-amplified human GBA2 (GBA2 nucleotide accession number BC011363) using the following primers: Sense 5’---CGCAAATGGGCGGTAGGCGTG---3’ and antisense 5’---TAGTCAGCCATGGGGCGGAGA ---3’) was cloned into pLenti-GIII-CMV by ABM Inc. The correctness of the construct was verified by sequencing. Lentivirus particles containing GBA2 in the pLenti-GIII-CMV plasmid were prepared using a third Generation Virus Packaging Mix (ABM cat# LV053-G074) in HEK293T cells and supplied as a virus particle suspension. The virus suspension was used for infection of HEK293T cells. Cell populations stably expressing human GBA2 were selected using puromycin for several weeks as determined by activity assays and western blot.
Various concentrations of test compounds were prepared in DMSO and then diluted into buffer consisting of 100 mM citric acid, 200 mM disodium phosphate with 1% v/v C10E6, pH 5.5. Cellular homogenates (0.25 mg/mL) of the stable HEK293T-overexpressing GBA2 cell line were preincubated for 10 min on ice with an inhibitor of GCase (20 µM (6R,7R,8S)-8-ethyl-4-azaspiro[2.5]octane-6,7-diol). The reaction solution consisted of 20 µL of 750 µM 4-methylumbelliferone-β-D glucopyranoside in 5% DMSO in the same buffer, 20 µL of GBA2-cellular homogenate pre-treated with (6R,7R,8S)-8-ethyl-4-azaspiro[2.5]octane-6,7-diol and 20 µL of various concentrations of test compound in 10% DMSO in the same buffer. The final concentrations in the reaction were 0.083 mg/mL GBA2-cellular homogenate, 250 µM 4-methylumbelliferone-β-D glucopyranoside, and various concentrations of inhibitor. The inhibitor and GBA2-cellular homogenate were preincubated together for 5 min at 37° C. The reaction was initiated by addition of substrate and allowed to proceed for 20 min at 37° C. to assess GBA2 activity. Reactions were stopped by the addition of an equal volume (60 µL) of 0.5 M NaOH, 0.3 M glycine, pH 10.5. Fluorescence was measured on a Biotek Synergy H4 plate reader at wavelengths of 365 nm for excitation and 450 nm for emission. Incubations without added enzyme or added inhibitors were used to define no enzyme activity and maximal enzyme activity, respectively. IC50 values were determined by fitting the data to a log[inhibitor concentration] versus response curve using GraphPad Prism. IC50 values were calculated as the concentration of inhibitor required to inhibit GBA2 activity by 50%.

[1] = biological target: T2, human non-lysosomal glucosylceramidase (GBA2) (Homo sapiens, UniProt Q9HCG7); assay: Binding specificity for GBA2 over other molecules (ratio of Ki or IC50 values); type: biochemical; conditions: qualitative statement, no values or other enzyme given
T2 sequence (Q9HCG7 1-927): T1 sequence (Q9HCG7 1-927)
Excerpt: In some embodiments, one or more of the compounds according to the invention may specifically bind a GBA2. In alternative embodiments, one or more of the compounds according to the invention may specifically bind the active site of a GBA2. […] In alternative embodiments, one or more of the compounds according to the invention may specifically bind the human non-lysosomal glucosylceramidase (GBA2) over the human lysosomal glucosylceramidase (GCase) and/or the human cytosolic glucosylceramidase (GBA3). In alternative embodiments, one or more of the compounds according to the invention may specifically bind the human non-lysosomal glucosylceramidase (GBA2) over the human glucosylceramide synthase (GCS). In alternative embodiments, one or more of the compounds according to the invention may specifically bind the human non-lysosomal glucosylceramidase (GBA2) over an intestinal alpha-glucosidase, where the intestinal alpha-glucosidase may be a sucrase-isomaltase or a maltase-glucoamylase.

Structure (SMILES) | GBA2 IC50 (human GBA2) | binding specificity, Ki(other molecule)/Ki(GBA2) or IC50(other molecule)/IC50(GBA2) [1]
OC[C@H]1[C@@H](O)[C@H](O)[C@@H](O)CN1C[C@H]1CC[C@@H](C(F)F)CC1 [Example 311, (2S,3R,4R,5S)-1-(((1s,4R)-4-(difluoromethyl)cyclohexyl)methyl)-2-(hydroxymethyl)piperidine-3,4,5-triol] | ∗∗∗ | enhanced binding specificity
OC[C@H]1[C@@H](O)[C@H](O)[C@@H](O)CN1C[C@H]1CC[C@H](C(F)F)CC1 [Example 312, (2S,3R,4R,5S)-1-(((1r,4S)-4-(difluoromethyl)cyclohexyl)methyl)-2-(hydroxymethyl)piperidine-3,4,5-triol] | ∗∗∗ | enhanced binding specificity
CC(F)(F)[C@H]1CC[C@@H](CN2C[C@H](O)[C@@H](O)[C@H](O)[C@@H]2CO)CC1 [Example 313, (2S,3R,4R,5S)-1-(((1s,4R)-4-(1,1-difluoroethyl)cyclohexyl)methyl)-2-(hydroxymethyl)piperidine-3,4,5-triol] | ∗∗∗ | enhanced binding specificity
CC(F)(F)[C@H]1CC[C@H](CN2C[C@H](O)[C@@H](O)[C@H](O)[C@@H]2CO)CC1 [Example 314, (2S,3R,4R,5S)-1-(((1r,4S)-4-(1,1-difluoroethyl)cyclohexyl)methyl)-2-(hydroxymethyl)piperidine-3,4,5-triol] | ∗∗∗ | enhanced binding specificity

Reference: US20230174486A1, “NON-LYSOSOMAL GLUCOSYLCERAMIDASE INHIBITORS AND USES THEREOF” (ALECTOS THERAPEUTICS lNC., priority 2020, published 2023)
